Values quoted from earlier work as cited in patent publication US20230255953A1, “USE OF ROLUPERIDONE IN PREVENTING RELAPSE IN SCHIZOPHRENIA PATIENTS” (Minerva Neurosciences, Inc., priority 2022, published 2023).
Like-named read-outs stand apart in the source and are kept apart here.

Experiments:
chronic schizophrenia = conditions: Arato et al. 2002 (ZEUS), cited from earlier work
[1] = tested on: patients with schizophrenia; conditions: Durgam et al. 2016; cited from earlier work

SMILES | Relapse rate after one year (chronic schizophrenia; 40 mg/day) [%] | Relapse rate after one year (chronic schizophrenia; 80 mg/day) [%] | Relapse rate after one year (chronic schizophrenia; 160 mg/day) [%] | Relapse rate [1] [%]
O=C1Cc2cc(CCN3CCN(c4nsc5ccccc45)CC3)c(Cl)cc2N1 [ziprasidone] | 43 | 35 | 36 | 
CN(C)C(=O)N[C@H]1CC[C@H](CCN2CCN(c3cccc(Cl)c3Cl)CC2)CC1 [cariprazine] |  |  |  | 24.8
